What all share (type): cell-based
Assay [1] relates to fungal mix: Aspergillus brasiliensis DSM 1988, Rhodotorula mucilaginosa DSM 13621, Yarrowia lipolytica DSM 8218. The experiment in a line: Preservative activity in a hard surface cleaner composition (HSC, pH 7.0) with 2-phenoxyethanol against fungal mix (Example 1.5). To be noted: HSC + 1.35% PE, no amide (Comparative 2). How it is done: A manual hard surface cleaner (HSC) of pH 7.0 containing the following components was used:
(§1) The samples were contaminated with a fungal mix consisting of: • Aspergillus brasiliensis DSM 1988 • Rhodotorula mucilaginosa DSM 13621 • Yarrowia lipolytica DSM 8218
The samples were inoculated with the fungal mix at day 0 and 7 to obtain 1-3×10E+05 CFU/ml inoculation in the test sample consisting of the above-defined hard surface cleaner HSC and stored at 25° C. for 21 days. CFU was determined before re-inoculation at day 7, and on days 14 and 21.

Assay [2] deals with bacterial mix: Escherichia coli DSM 1576, Alcaligenes faecalis DSM 13644, Pseudomonas aeruginosa ATCC 15442, Staphylococcus aureus ATCC 6538, Burkholderia …. The experiment in a line: Preservative activity in a manual dishwashing composition (MDW, pH 7.1) with 1.0% 2-phenoxyethanol against bacterial mix (Example 2.5). Conditions: MDW + 1.0% PE, no amide (Comparative). How it is done: A manual dish wash detergent (MOW) of pH 7.1 containing the following components was used:
The samples were contaminated with a bacterial mix consisting of: • Escherichia coli DSM 1576 • Alcaligenes faecalis DSM 13644 • Pseudomonas aeruginosa ATCC 15442 • Staphylococcus aureus ATCC 6538 • Burkholderia cepacia DSM 7288 • Pseudomonas putida DSM 12735
The samples were inoculated with the bacterial mix at day 0 and 7 to obtain 10E+06 to 10E+07 CFU/ml inoculation in the test sample and stored at 25° C. for 21 days. CFU was determined before re-inoculation at day 7 and on day 21.
Any CFU value at day 7 (d7) or day 21 (d21) obtained with a sample according to the invention containing 2-phenoxyethanol and amide (MDW+1.0% PE+1.0% Amide) lower than the respective value of the comparative example (MDW+1% by weight of 2-phenoxyethanol) indicates a better performance.

In assay [3] the test system is fungal mix: Aspergillus brasiliensis DSM 1988, Rhodotorula mucilaginosa DSM 13621, Yarrowia lipolytica DSM 8218. The experiment in a line: Preservative activity in a diluted non-ionic surfactant solution (1% Lutensol ON 70, pH 7.0) with 2-phenoxyethanol against fungal mix (Example 1.6). Conditions: Surfactant solution + 0.81% PE, no amide (Comparative 2).
Excerpt: A surfactant solution in phosphate buffer of pH 7.0 containing 1% by weight of Lutensol ON 70, a C10-fatty alcohol ethoxylated with 7EO, was used.
as §1
The samples were inoculated with the fungal mix at day 0 and 7 to obtain 1-3×10E+05 CFU/ml inoculation in the test sample consisting of the above-defined surfactant solution and stored at 25° C. for 14 days. CFU was determined before re-inoculation at day 7, and on day 14.
Any CFU value at d7 and d14 obtained with a surfactant solution sample of the invention containing 2-phenoxyethanol and amide (surfactant solution+0.81% PE+0.09% of amide) lower than the respective value of the “comparative 2” example (surfactant solution+0.81% by weight of 2-phenoxyethanol) indicates a better performance of the inventive combination of 2-phenoxyethanol with the amide.

Assay [4] shares this test system. The experiment in a line: Preservative activity in a manual dishwashing composition (MDW, pH 7.1) with 1.0% 2-phenoxyethanol against fungal mix (Example 1.2). To be noted: MDW + 1.0% PE, no amide (Comparative). How it is done:
A manual dish wash detergent (MDW) of pH 7.1 containing the following components was used:
as §1
The samples were inoculated with the fungal mix at day 0 and 7 to obtain 1-3×10E+05 CFU/ml inoculation in the test sample consisting of the above-defined dish wash detergent MDW and stored at 25° C. for 21 days. CFU was determined before re-inoculation at day 7, and on days 14 and 21.
Any CFU value at d7, d14 or d21 obtained with a MDW sample of the invention containing 2-phenoxyethanol and amide (MDW+1.0% PE+x % of Amide) lower than the respective value of the comparative example (MDW+1.0% by weight of 2-phenoxyethanol) indicates a better performance of the inventive combination of 2-phenoxyethanol with the amide.

Assay [5] concerns bacterial mix: Escherichia coli DSM 1576, Alcaligenes faecalis DSM 13644, Pseudomonas aeuginosa ATCC 15442, Staphylococcus aureus ATCC 6538, Burkholderia …. The experiment in a line: Preservative activity of a basic composition (10% PG in water, pH 7) with 2-phenoxyethanol against bacterial contamination (Example 2.1). To be noted: 10% PG + 0.4% PE, no amide (Comparative 2).
For assay [6] the test system is unchanged. The assay is described as above. To be noted: 10% PG + 0.36% PE + 0.04% amide. How it is done: An aqueous composition of pH 7 comprising 10% by weight of propyleneglycol (PG) as organic solvent, 0.36% by weight of 2-phenoxyethanol (PE) as antimicrobial and 0.04% by weight of the amide listed in the below table was tested for its preserving activity against bacterial contamination (the weight percentages relate to the total weight of the composition). For this purpose, the samples were contaminated with a bacterial mix consisting of: • Escherichia coli DSM 1576 • Alcaligenes faecalis DSM 13644 • Pseudomonas aeuginosa ATCC 15442 • Staphylococcus aureus ATCC 6538 • Burkholderia cepacia DSM 7288 • Pseudomonas putida DSM 12735
The samples were inoculated with the bacterial mix at day 0, 7 and 14 to obtain 10E+06 to 10E+07 CFU/ml inoculation in the test samples (compositions listed in the below table) consisting of 10% by weight of propylene glycol in water and stored at 25° C. for 21 days.
CFU was determined before re-inoculation at days 7 and 14, and on day 21.

Each structure is given as a SMILES string.

For the molecule `OCCOc1ccccc1` [PE, 2-phenoxyethanol, reference compound], the “d7 [CFU/ml]” value in assay [1] (day 7) is given as 37,000 CFU/ml; in assay [2] (day 7), 820 CFU/ml; in assay [3] (day 7), 16,500 CFU/ml; in assay [4] (day 7) it was 38,000 CFU/ml; in assay [5] (day 7) it was 65,000 CFU/ml. In addition, the “d14 [CFU/ml]” value in assay [1] (day 14) is 36,000 CFU/ml; in assay [3] (day 14), 45,00 CFU/ml; in assay [4] (day 14) it was 27,000 CFU/ml; in assay [5] (day 14), >100,000 CFU/ml. Moreover, the “d21 [CFU/ml]” value is on record as 3200 CFU/ml in assay [1] (day 21), 135 CFU/ml in assay [2] (day 21), 3,700 CFU/ml in assay [4] (day 21) and >100,000 CFU/ml in assay [5] (day 21).
With `CCCCCCCCCC(=O)N(C)C` [n-Decanoyl-N,N-dimethylamide], the “d7 [CFU/ml]” value in assay [6] (day 7) is less than 10 CFU/ml. Moreover, in assay [6] (day 14), the “d14 [CFU/ml]” value is listed as less than 10 CFU/ml. In assay [6] (day 21), the “d21 [CFU/ml]” value is recorded as less than 10 CFU/ml.
